Laboratory results published in publication PMC4364341, “NBD delivery improves the disease phenotype of the golden retriever model of Duchenne muscular dystrophy” (Skeletal Muscle, 2014).

How the values were obtained:
GRMD dogs [1] = test: Cranial sartorius (CS) circumference, GRMD dogs; type: in vivo, dog; details: age 6 months, NBD 10 mg/kg IV 3x weekly for 4 months, n = 6
From the text: We have previously shown that the CS muscle undergoes dramatic hypertrophy in GRMD dogs and that this hypertrophy tracks with postural abnormalities. Accordingly, we use CS circumference measured at surgery during routine biopsy as a surrogate for muscle hypertrophy and associated postural changes in GRMD [24]. Dogs were anesthetized (above), and an incision was made over the cranial aspect of the thigh. In advance of biopsy, the CS muscle was isolated. Nylon suture was placed around the muscle at approximately midsection and tightened so as to snugly encircle the muscle belly. The two ends of the suture were secured with a pair of hemostats and then cut on the muscle side of the hemostat. The length in mm was divided by body mass in kg (mm/kg). An average of two measurements was recorded.

GRMD dogs [2] = test: MRI of proximal pelvic limb muscles, GRMD dogs; type: in vivo, dog; design: MRI T2 mapping value: unit not given here; details: 6 months, NBD 10 mg/kg IV 3x weekly for 4 months, n = 6
From the text: Studies were done on a Siemens 3 T Allegra Head-Only MRI scanner with a circular polarization (CP) head coil or Siemens 3 T Tim Trio Whole-Body MRI scanner with a 32-channel body coil at the UNC-CH Biomedical Research Imaging Center (BRIC). Dogs were anesthetized (above), placed on an MRI gantry in the sternal (prone) position with the pelvic limbs extended, and positioned in the coil centered at the midpoint of the femur. The proximal pelvic limbs from the coxofemoral joint to the stifle were imaged bilaterally. Scans were completed using a published protocol. T2-weighted image sequences without (T2w) and with fat saturation (T2fs) were acquired using a variable-flip-angle turbo spin echo (TSE) sequence. The time between the excitation pulse and the center of k-space was 400 ms. Importantly, the contrast was not determined only by the TE (400 ms), but also by the flip angle evolution scheme. Although a traditional TSE sequence would have very little signal at 400 ms, the variable flip angle sequence is similar in principle to hyper-echo. The hyper-echo reduces the specific absorption rate (SAR), while the variable flip angle sequence allows long TE times. A multi-spin-echo T2 (MSE-T2), using a 10-echo Carr-Purcell-Meiboom-Gill sequence, was acquired to calculate the T2 value map. Analysis of the images was completed in three modules: muscle segmentation, pre-processing, and biomarker analysis. As a prerequisite, we first segmented the major proximal pelvic limb muscles in the MRI images. All proximal pelvic limb muscles were segmented but only five slices at the midfemur were analyzed and averaged.
For the sake of this study, the biomarker analysis was limited to muscle volumes, T2 mapping values, and several texture analysis features, including a first-order intensity histogram texture feature (entropy) and two high order run length matrix features (short run emphasis (SRE) and run length non-uniformity (RLN)). These texture analysis features were assessed as potential markers of patchy lesions such as necrosis. Based on the mathematical model, we refer to short run emphasis as the Small Lesion Index (SLI) and non-uniformity as the Heterogeneity Index (HI). Both SLI and HI use the run-length matrix method. Compared to histogram-based biomarkers that use intensity data only, the run-length matrix method also takes into account the spatial distribution and intensity of the voxels. A gray-level ‘run’ is defined as a set of consecutive voxels of similar intensity level in a given direction within a predefined similarity range. This is run in a three-dimensional matrix and is intended to detect lumps of hyper-intensity in MRI. To determine overall muscle scores for T2 and the texture features in each group, the proportional muscle volume was considered, so as to calculate a weighted average.

GRMD dogs [3] = test: Joint and pelvic angles, GRMD dogs; type: in vivo, dog; details: n = 6
From the text: We previously reported that 6-month-old GRMD dogs have abnormally acute (contracted) TTJ angles while positioned in dorsal recumbence for force measurements. Other investigators have subsequently described methods to measure joint angles at maximal flexion and extension, with associated range of motion, in wild type dogs. The method of Jaegger et al.[29] is now utilized to measure pelvic limb tibiotarsal (hock, ankle), stifle (knee), and coxofemoral (hip) joint angles for ongoing natural history and preclinical trials in our laboratory. In each case, dogs were anesthetized (above) and positioned in lateral recumbence. Angles at rest, maximal flexion, and maximal extension were measured. To objectively characterize the cranioventral shift of the pelvis typically seen in GRMD dogs, we also measured the pelvic angle formed by two lines extending cranially from the tuber ischium, one drawn parallel to the lumbar spine and the other extending to the midpoint of the tuber coxae.

[4] = dog, in vivo, iv
From the text: Having established a treatment regimen that provides efficacy of NBD in mice, we next asked whether such therapy could be applied to a larger animal model of DMD. […] In addition, normal hematology (white blood cell, red blood cell, platelet counts) and serum chemistry (ALT, AST, GGT, bilirubin, creatinine, potassium, creatine kinase) profiles were noted following a single IV injection of NBD in normal dogs (data not shown). Based on our collective data, a preclinical trial in GRMD dogs was initiated with four primary outcomes: skeletal muscle function, MRI of pelvic limb muscles, histopathologic features of skeletal muscles, and safety. Juvenile GRMD (n = 6) and wild type (n = 3) dogs at 2 months of age were treated for 4 months by IV infusions, 3× weekly, at 10 mg/Kg. Results were compared with those collected from untreated GRMD and wild type dogs through a separate, natural history study.

[5] = tested on: utrn-/-;mdx double knock out (dko) mice; details: NBD-treated dko mice; cited from earlier work
From the text: Our ability to collectively achieve such a benefit in GRMD dogs, as well as in mdx diaphragm, [9, 13] and dko hearts, supports the pre-clinical efficacy of NBD. Due to interspecies differences among mice, dogs, and humans, it is difficult to say e ...

[6] = NBD group, age 2 months (start of treatment)
[7] = age 6 months, NBD 10 mg/kg IV 3x weekly for 4 months

Sequence: TALDWSWLQTE [NBD, NBD peptide (…) fused to an Antennapedia protein transduction domain]
- CS Circumference (GRMD dogs [1]): 3.67 ± 0.65 mm/kg
- MRI HI (Heterogeneity Index, run length non-uniformity) (GRMD dogs [2]; Adductor): 116.2 ± 22.37
- MRI SLI (Small Lesion Index, short run emphasis) (GRMD dogs [2]; Adductor): 0.72 ± 0.02
- MRI T2 mapping value (GRMD dogs [2]; Adductor): 39.52 ± 4.76
- MRI HI (Heterogeneity Index, run length non-uniformity) (GRMD dogs [2]; All muscles (weighted average)): 86.01 ± 18.28
- MRI SLI (Small Lesion Index, short run emphasis) (GRMD dogs [2]; All muscles (weighted average)): 0.70 ± 0.04^^
- MRI T2 mapping value (GRMD dogs [2]; All muscles (weighted average)): 47.34 ± 3.10^^
- MRI HI (Heterogeneity Index, run length non-uniformity) (GRMD dogs [2]; Biceps Femoris): 87.50 ± 48.42
- MRI SLI (Small Lesion Index, short run emphasis) (GRMD dogs [2]; Biceps Femoris): 0.68 ± 0.06^^
- MRI T2 mapping value (GRMD dogs [2]; Biceps Femoris): 40.20 ± 4.91^^
- MRI HI (Heterogeneity Index, run length non-uniformity) (GRMD dogs [2]; Caudal Sartorius): 35.21 ± 14.92
- MRI SLI (Small Lesion Index, short run emphasis) (GRMD dogs [2]; Caudal Sartorius): 0.83 ± 0.05
- MRI T2 mapping value (GRMD dogs [2]; Caudal Sartorius): 53.87 ± 9.88
- MRI SLI (Small Lesion Index, short run emphasis) (GRMD dogs [2]; Cranial Sartorius): 0.79 ± 0.05
- MRI T2 mapping value (GRMD dogs [2]; Cranial Sartorius): 49.40 ± 9.01
- MRI HI (Heterogeneity Index, run length non-uniformity) (GRMD dogs [2]; Gracilis): 58.90 ± 30.66
- MRI SLI (Small Lesion Index, short run emphasis) (GRMD dogs [2]; Gracilis): 0.70 ± 0.06^^
- MRI T2 mapping value (GRMD dogs [2]; Gracilis): 45.91 ± 3.50
- MRI HI (Heterogeneity Index, run length non-uniformity) (GRMD dogs [2]; Rectus Femoris): 55.42 ± 21.95
- MRI SLI (Small Lesion Index, short run emphasis) (GRMD dogs [2]; Rectus Femoris): 0.68 ± 0.07^^
- MRI T2 mapping value (GRMD dogs [2]; Rectus Femoris): 37.23 ± 4.72
- MRI HI (Heterogeneity Index, run length non-uniformity) (GRMD dogs [2]; Semimembranosus): 78.15 ± 33.31
- MRI SLI (Small Lesion Index, short run emphasis) (GRMD dogs [2]; Semimembranosus): 0.68 ± 0.06
- MRI T2 mapping value (GRMD dogs [2]; Semimembranosus): 39.42 ± 4.86
- MRI HI (Heterogeneity Index, run length non-uniformity) (GRMD dogs [2]; Semitendinosus): 81.43 ± 35.00
- MRI SLI (Small Lesion Index, short run emphasis) (GRMD dogs [2]; Semitendinosus): 0.67 ± 0.08^^
- MRI T2 mapping value (GRMD dogs [2]; Semitendinosus): 40.41 ± 4.97^^
- MRI HI (Heterogeneity Index, run length non-uniformity) (GRMD dogs [2]; Vastus Intermedius): 59.10 ± 27.19
- MRI SLI (Small Lesion Index, short run emphasis) (GRMD dogs [2]; Vastus Intermedius): 0.68 ± 0.09
- MRI T2 mapping value (GRMD dogs [2]; Vastus Intermedius): 41.91 ± 5.91^^
- MRI HI (Heterogeneity Index, run length non-uniformity) (GRMD dogs [2]; Vastus Lateralis): 52.92 ± 27.20
- MRI SLI (Small Lesion Index, short run emphasis) (GRMD dogs [2]; Vastus Lateralis): 0.68 ± 0.04^^
- MRI T2 mapping value (GRMD dogs [2]; Vastus Lateralis): 40.67 ± 5.84^^
- MRI HI (Heterogeneity Index, run length non-uniformity) (GRMD dogs [2]; Vastus Medialis): 52.55 ± 22.29
- MRI SLI (Small Lesion Index, short run emphasis) (GRMD dogs [2]; Vastus Medialis): 0.77 ± 0.09
- MRI T2 mapping value (GRMD dogs [2]; Vastus Medialis): 42.74 ± 5.65
- Hip (Resting) angle (GRMD dogs [3]; [6]): 103.7 ± 2.94
- Maximum Hip Flexion (GRMD dogs [3]; [6]): 44.67 ± 5.47 °
- Pelvic Angle (GRMD dogs [3]; [6]): 41.00 ± 6.81 °
- TTJ Angle (GRMD dogs [3]; [6]): 157.00 ± 9.80 °
- Hip (Resting) angle (GRMD dogs [3]; [7]): 100.2 ± 6.01^2
- Maximum Hip Flexion (GRMD dogs [3]; [7]): 46.33 ± 3.50^2 °
- Pelvic Angle (GRMD dogs [3]; [7]): 36.83 ± 5.12^2 °
- TTJ Angle (GRMD dogs [3]; [7]): 160.17 ± 8.84 °
- Hematology and serum chemistry profiles [4]: normal
- Functional response, dko heart [5]: improved back to wild type
